According to ChEMBL document CHEMBL1126552 (J Med Chem, 1993):

The compounds below were run against Adenosine A2 receptor (Rattus norvegicus, UniProt P29276+P30543) (assay: Binding affinity towards adenosine A2 receptor was determined using radioligand [3H]NECA in rat brain striatum at 25 degree C).
Type: tissue-based

Q: `CCCn1c(=O)c2nc([C@@H](CC)c3ccccc3)[nH]c2n(CCC)c1=O` was tested. Which Ki did it give?
A: 7.5 µM

Q: With `CCCn1c(=O)c2nc(CC(C)c3ccccc3)[nH]c2n(CCC)c1=O` (centres undefined) as the compound, how does the Ki read?
A: 1.74 µM

Q: `CCCn1c(=O)c2nc(C(C)c3ccccc3)[nH]c2n(CCC)c1=O` (centres undefined) was tested. Which Ki did it give?
A: 4.9 µM

Q: How did the Ki turn out when `CCCn1c(=O)c2nc(C3Cc4ccccc4C3)[nH]c2n(CCC)c1=O` was run?
A: 8.35 µM

Q: Which Ki does the source give for `CCCn1c(=O)c2nc([C@H](CC)c3ccccc3)[nH]c2n(CCC)c1=O` here?
A: 3.51 µM

Q: For `CCCn1c(=O)c2nc([C@@H](C)c3ccccc3)[nH]c2n(CCC)c1=O`, which Ki is on record?
A: 12.9 µM

Q: `CCCn1c(=O)c2nc(C(CO)Cc3ccccc3)[nH]c2n(CCC)c1=O` (centres undefined) was tested. Which Ki did it give?
A: 12.8 µM

Q: With `CCCn1c(=O)c2nc([C@H]3CCC[C@@H]3c3ccccc3)[nH]c2n(CCC)c1=O` as the compound, how does the Ki read?
A: 2.72 µM

Q: Which Ki does the source give for `CCCn1c(=O)c2nc(C(CC)Cc3ccccc3)[nH]c2n(CCC)c1=O` (centres undefined) here?
A: 1.23 µM

Q: How did the Ki turn out when `CCCn1c(=O)c2nc(C3CCc4ccccc4C3)[nH]c2n(CCC)c1=O` (centres undefined) was run?
A: 10.3 µM

Q: For `CCCn1c(=O)c2nc(C(CC)c3ccccc3)[nH]c2n(CCC)c1=O` (centres undefined), which Ki is on record?
A: 3.21 µM

Q: Which Ki does the source give for `CCCC(Cc1ccccc1)c1nc2c(=O)n(CCC)c(=O)n(CCC)c2[nH]1` (centres undefined) here?
A: 0.61 µM

Q: How did the Ki turn out when `CCCn1c(=O)c2nc([C@H](C)c3ccccc3)[nH]c2n(CCC)c1=O` was run?
A: 4.22 µM

What follows are compounds tested against T1, Adenosine receptor A1 (Rattus norvegicus, UniProt P25099) (assay: Binding affinity towards adenosine A1 receptor was determined using radioligand [3H]CHA in whole rat brain membranes at 25 degree C).
T1 sequence (P25099 whole entry): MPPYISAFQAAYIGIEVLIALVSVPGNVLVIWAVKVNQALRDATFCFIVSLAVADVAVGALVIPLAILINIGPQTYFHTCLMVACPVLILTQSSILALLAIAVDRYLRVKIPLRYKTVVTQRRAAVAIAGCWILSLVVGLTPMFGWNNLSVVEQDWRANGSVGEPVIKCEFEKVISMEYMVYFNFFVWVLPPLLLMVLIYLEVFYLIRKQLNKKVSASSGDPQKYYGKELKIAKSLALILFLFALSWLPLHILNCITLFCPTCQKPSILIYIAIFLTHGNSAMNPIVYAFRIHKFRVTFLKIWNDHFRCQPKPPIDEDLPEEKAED
Type: cell membranes

Q: `CCCn1c(=O)c2nc([C@@H](CC)c3ccccc3)[nH]c2n(CCC)c1=O` was tested. Which Ki did it give?
A: 0.136 µM

Q: With `CCCn1c(=O)c2nc(C(CC)c3ccccc3)[nH]c2n(CCC)c1=O` (centres undefined) as the compound, how does the Ki read?
A: 0.0335 µM

Each compound was assayed against Adenosine receptors; A1 & A2 (Rattus norvegicus) (UniProt P29276+P25099+P30543) (assay: Selectivity as ratio of Ki against A2 and A1 receptors).
Type: protein assay

Q: Which Ratio does the source give for `CCCn1c(=O)c2nc([C@@H](CC)c3ccccc3)[nH]c2n(CCC)c1=O` here?
A: 55

Q: How did the Ratio turn out when `CCCn1c(=O)c2nc(CC(C)c3ccccc3)[nH]c2n(CCC)c1=O` (centres undefined) was run?
A: 18

Q: For `CCCn1c(=O)c2nc([C@H](CC)c3ccccc3)[nH]c2n(CCC)c1=O`, which Ratio is on record?
A: 153

Q: For `CCCn1c(=O)c2nc(C(CC)c3ccccc3)[nH]c2n(CCC)c1=O` (centres undefined), which Ratio is on record?
A: 95
